US10940151B2, “Methods for treating renal disease” (Beth Israel Deaconess Medical Center, Inc., priority 2012, dated 2021)
Entries after “also recorded” stand apart in the source; their conditions may differ.

Experiments:
Type in all cases: cell-based
[1] = test system: APOL1 expression in endothelial cells; experiment: APOL1 expression in endothelial cells treated with TLR3 agonist poly(I:C) and inhibitors; details: TLR3 agonist poly(I:C) (FIG. 8-13)
Method: Endothelial cells were treated with the TLR3 agonist poly(I:C) and with JAK inhibitors (FIGS. 8A-8D), Bx795(a TBK1/IKKe inhibitor) (FIG. 9), and chloroquine (FIG. 10). […] The TBK1/IKK e complex is used by both TLR and Rig-like receptor signaling mechanisms, and therefore offers a broader target for inhibition of APOL1 expression than either pathway alone. Chloroquine and similar class of compounds may be particularly useful for inhibiting APOL1 expression when that expression is driven by endosomal pattern recognition receptors such as TLR3, TLR7, TLR8, TLR9, and in some cases TLR4. Even though TLR3 expression is described above as an example, these strategies are likely to be effective in blocking APOL1 expression driven by multiple inflammatory stimuli.
Endothelial cells were treated with the TLR3 agonist poly(I:C) and with NF-κB inhibitors (FIG. 11), PKR inhibitors (FIG. 12), and MAP kinase inhibitors (FIG. 13).

[2] = test system: APOL1 mRNA expression in endothelial cells; experiment: APOL1 mRNA expression in endothelial cells treated with interferon beta and JAK inhibitors; details: interferon beta (FIG. 4A-4C)
Description: JAK inhibitors are in clinical testing for autoimmune disease, transplant immunosuppression, and myelodysplastic syndromes. They are selective, rather than specific, for individual JAK inhibitors. For example, WHI-P131 targets JAK3, INCB018424 (ruxolitinib) targets […] and JAK2, and TG101348 targets JAK2.

[3] = test system: APOL1 expression in podocytes; experiment: APOL1 expression in podocytes treated with TLR3 agonist poly(I:C) and inhibitors; details: podocytes (not shown)
[4] = test system: APOL1 mRNA expression in endothelial cells; experiment: APOL1 mRNA expression in endothelial cells after stimulation with interferons, TLR/RIG agonists or bacterial DNA; details: interferon stimulation (FIG. 3A, 3B)
Description: HIV is a powerful inducer of APOL1 renal disease in individuals with the renal risk genotype. Other viruses such as parvovirus have been associated with FSGS. […] Cells have extracellular, endosomal, and cytoplasmic viral sensors such as TLRs, Rig-L1, and others. These genes are potential targets for reducing APOL1 expression.

[5] = test system: APOL1 expression; experiment: shRNA knockdown experiments on poly(I:C)-induced APOL1 upregulation; details: polyI:C versus control, GFP virus control (FIG. 14)
Description: To validate pharmacologic targets that may regulate pathogenic APOL1 expression, we used shRNA to determine specific genes that mediate the APOL1 upregulation induced by poly(I:C). These experiments allowed us to confirm targets identified above by pharmacologic methods and to identify additional known targets in these same pathways. […] The data shown in FIG. 14 validates several pathways identified by the pharmacological experiments described above and identifies additional pathways that can be targeted to decrease pathogenic APOL1 expression.

Nc1ccc2ncnc(NCCc3ccc(Oc4ccccc4)cc3)c2c1 [6A4Q, 6-amino-4-(4-phenoxyphenylethylamino) quinazoline]
effect on poly(I:C) induced APOL1 upregulation (in words) [1]: could be inhibited

CC(C)(C)c1ccc(S(=O)(=O)/C=C/C#N)cc1 [Bay 11-7085]
effect on poly(I:C) induced APOL1 upregulation (in words) [1]: could be inhibited

O=C(NCCCNc1nc(Nc2cccc(NC(=O)N3CCCC3)c2)ncc1I)c1cccs1 [Bx795]
effect on poly(I:C) induced APOL1 upregulation (in words) [1]: reduced the poly(I:C) induced increased in APOL1 expression

N#CC[C@H](C1CCCC1)n1cc(-c2ncnc3[nH]ccc23)cn1 [INCB018424]
effect on APOL1 upregulation caused by interferon beta (in words) [2]: block the potentially pathologic upregulation of APOL1

C[S+]([O-])c1ccc(-c2nc(-c3ccncc3)c(-c3ccc(F)cc3)[nH]2)cc1 (stereo not shown) [SB203580]
effect on poly(I:C) induced APOL1 upregulation (in words) [1]: inhibited blocked poly(I:C) induced APOL1 upregulation; also recorded: inhibited APOL1 expression

Oc1c2ccccc2c2c3c(cccc13)N=N2 [SP600125]
inhibition of APOL1 expression [3]: 50%

Cc1cnc(Nc2ccc(OCCN3CCCC3)cc2)nc1Nc1cccc(S(=O)(=O)NC(C)(C)C)c1 [TG101348]
effect on APOL1 upregulation caused by interferon beta (in words) [2]: block the potentially pathologic upregulation of APOL1

COc1cc2ncnc(Nc3ccc(O)cc3)c2cc1OC [WHI-P131]
effect on APOL1 upregulation caused by interferon beta (in words) [2]: block the potentially pathologic upregulation of APOL1

CCN(CC)CCCC(C)Nc1ccnc2cc(Cl)ccc12 (stereo not shown) [chloroquine]
effect on poly(I:C) induced APOL1 upregulation (in words) [1]: reduced the poly(I:C) induced increased in APOL1 expression

O=C1Nc2ccc3ncsc3c2/C1=C/c1c[nH]cn1 [imidazolo-oxindole PKR inhibitor]
effect on poly(I:C) induced APOL1 upregulation (in words) [1]: blocks APOL1 upregulation
effect on poly(I:C) induced APOL1 upregulation (in words) ([1]; listed as drawing 4): completely blocked poly(I:C) induced APOL1 upregulation

interferon gamma: type 2 (gamma) interferon
upregulation of APOL1 [4]: up to 200 fold

polyI:C
stimulation of APOL1 expression (in words) [5]: strongly stimulates APOL1 expression
